Reference: US20250198992A1, “IN VITRO METHODS” (HALEON CH SARL, priority 2022, published 2025)

Tests used:
[1] = Non-specific adsorption of diclofenac on the OFM probes and tubing; conditions: for the duration of the experiment (6 h); data not shown
Protocol: Two test solutions of diclofenac diethyl amine salt (DDEA) and diclofenac sodium salt (DNa) were tested. […] Samples were collected in 1 h intervals. Syringes and Eppendorf® vials were used to deliver test solution to the OFM outlet sections and tubing, respectively. Samples from the syringes and from the Eppendorf® vials were taken at the start (t=0 h) and at the end (t=6 h) of the experiment to determine the concentration entering the OFM probe and tubing. Syringes, dosing needles, Eppendorf® vials, and pipette tips were coated with each test solution prior to use. For coating, the samples were filled with test solutions and maintained at room temperature for 30 min. Afterwards, the coating test solutions were discarded. Pipette tips underwent three cycles of filling and emptying of test solutions. The fourth filling of the pipette tip was used as the sample. Adsorption was assessed by comparing inflow to outflow concentrations. […] LLOQ was 10 ng mL^-1.

[2] = both, human
Protocol: The skin was donated by male and female patients aged 28 to 63 years old undergoing abdominal plastic surgery at the Department for Plastic, Aesthetic, and Reconstructive Surgery of the Medical University Graz. […] The human skin explants were cleaned with gauze swabs and purified water and were subsequently stored frozen at −20° C.
The skin explants were thawed at room temperature for 12 h before the start of the study. They were fixed on a plate of extruded polystyrene wrapped in a medical underpad (MoliNea N, Paul Hartmann AG, Austria) and placed into a climate chamber (32° C./40-60% relative humidity) for 1 h before use. Ambient temperature and ambient relative humidity within the climate chamber were controlled throughout the experiment with a data logger with integrated temperature sensor and relative humidity sensor (175 H1 temperature and humidity data logger, Testo, Germany).
Cannulas (Sterican 20G, B.Braun, Germany) were inserted into the dermis and the subcutis of the skin explant. OFM probes (OFM-P0X-15, JR-HEALTH, Austria) were pushed through the cannulas. Afterwards, the cannulas were removed and the probes were fixed to the skin with cyanoacrylate (Cyanolit 241F, Panacol-Elosol GmbH, Germany). […]

[3] = system: protein; conditions: cited from earlier work

## O=C(O)Cc1ccccc1Nc1c(Cl)cccc1Cl [DDEA, diclofenac diethylammonium]
[1]
  stability in the stock solution: stable

## O=C(O)Cc1ccccc1Nc1c(Cl)cccc1Cl [DNa, diclofenac sodium]
[2]; 28 h
  concentration in recirculation probes higher than in control probes by: 9 ng/mL

## O=C(O)Cc1ccccc1Nc1c(Cl)cccc1Cl [Diclofenac, diclofenac]
[3]
  protein binding: > 99.8%
[2]
  dilution factor: 13.9 fold
